Consider ten compounds from patent US20250195513A1, “DEGRADATION OF IRAK4 BY CONJUGATION OF IRAK4 INHIBITORS WITH E3 LIGASE LIGAND AND METHODS OF USE” (BeiGene, Ltd., priority 2022, published 2025).

Assay [1] addresses T1, IRAK4 (Homo sapiens, UniProt Q9NWZ3).
T1 construct: endogenous in cells; host or cells: Karpas299
T1 sequence (Q9NWZ3 1-460): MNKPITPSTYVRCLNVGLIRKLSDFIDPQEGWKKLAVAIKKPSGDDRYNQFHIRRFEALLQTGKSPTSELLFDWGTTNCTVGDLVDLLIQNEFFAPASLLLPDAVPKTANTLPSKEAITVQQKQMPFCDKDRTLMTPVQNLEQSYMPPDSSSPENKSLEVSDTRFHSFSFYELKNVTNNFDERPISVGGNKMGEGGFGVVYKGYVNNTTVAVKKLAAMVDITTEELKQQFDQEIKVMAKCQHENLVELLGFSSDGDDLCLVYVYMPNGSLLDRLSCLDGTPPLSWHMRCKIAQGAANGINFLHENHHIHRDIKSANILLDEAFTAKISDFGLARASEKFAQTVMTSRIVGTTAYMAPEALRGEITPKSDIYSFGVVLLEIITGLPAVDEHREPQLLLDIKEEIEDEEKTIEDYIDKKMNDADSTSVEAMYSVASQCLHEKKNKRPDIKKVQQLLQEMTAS
Description: IRAK4 Degradation Assay with Human Serum (Karpas299, HTRF/TR-FRET). The format is cell-based. Conditions: Karpas-299 in human serum, 24 hrs treatment; for DC50: read-out: IRAK4 degradtion with human serum assay DC50; for Dmax: read-out: IRAK4 degradtion with human serum assay Dmax (%). As for the experimental part:
IRAK4 degradation was measured using a TR-FRET-based method (Degorce, François, et al. Current chemical genomics. 2009, 3: 22). Karpas299 resuspended in Human serum AB (GEMINI, 100-512) were seeded into 96-well plates at the density of 0.2 million cells per well and then treated with a series dilution of compounds. After 24 hrs treatment, cells were pelleted via centrifugation and washed with PBS, add 40 μL lysis buffer (Cisbio) to each well after removal of the supernatant. Plates were then incubated at room temperature with shaking for 30 minutes. A total of 16 μL of cell lysates from each well of a 96-well plate was transferred to a 384-well white assay plate. IRAK4 level was quantitated using the HTRF kit as described by the manufacturer manual (Cisbio). FRET signals were measured using a PHERAstar FSX reader (BMG Labtech).
After treatment, add HTRF lysis buffer to each well; seal the plate and incubate 1 hour at room temperature on a plate shaker; Once the cells are lysed, 16 μL of cell lysate are transferred to a PE 384-well HTRF detection plate; 4 μL of pre-mixed HTRF antibodies are added to each well; Cover the plate with a plate sealer, spin 1000 rpm for 1 min, Incubate overnight at room temperature; Read on BMG PheraStar with HTRF protocol (337 nm-665 nm-620 nm).
The inhibition (degradation) percentage of the compound was calculated by the following equation: […]
The IC50 (DC50) value of a compound can be obtained by fitting the following equation
Wherein, X and Y are known values, and IC50, Hillslope, Top and Bottom are the parameters obtained by fitting with software. Y is the inhibition percentage (calculated from the equation), X is the concentration of the compound; IC50 is the concentration of the compound when the […] is reached. The smaller the IC50 value is, the stronger the inhibitory ability of the compound is. Vice versa, the higher the IC50 value is, the weaker the ability the inhibitory ability of the compound is; Hillslope represents the slope of the fitted curve, generally around 1 *; Bottom represents the minimum value of the curve obtained by data fitting, which is generally 0%±20%; Top represents the maximum value of the curve obtained by data fitting, which is generally 100%±20%. The experimental data were fitted by calculating and analyzing with Dotmatics data analysis software.
(In general: Time-resolved FRET reads energy transfer from a long-lived donor to a nearby acceptor.)

Assay [2] addresses T1, IRAK4. Description: IRAK4 Degradation Assay (Karpas299, HTRF/TR-FRET). Particulars: Karpas-299 cells; for Dmax: maximum percentage of degradation. The format is cell-based. A digest of the protocol:
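Karpas299 cells at 0.2 million per well were exposed to serially diluted compounds for 24 h or 5 h, then lysed. IRAK4 remaining in lysates was quantified by HTRF (665/620 nm) after overnight antibody incubation at room temperature. Percent degradation was fitted to a four-parameter curve to give IC50 (DC50).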

The mark [3] stands for this setting: 5 h treatment, read-out: IRAK4 in Karpas-299 (5 h) Dmax (%).
Where [4] appears, read: 5 h treatment, read-out: IRAK4 in Karpas-299 (5 h) DC50.
Where [5] appears, read: 24 h treatment, read-out: IRAK4 in Karpas-299 (24 h) Dmax (%).
The mark [6] stands for this setting: 24 h treatment, read-out: IRAK4 in Karpas-299 (24 h) DC50.

The DC50 is the midpoint of the concentration-degradation curve. For orientation: Dmax means the greatest extent of degradation seen.

Consider `CC(C)(O)c1cc2nn(C34CC(N5CCN(CCC6CCN(c7cc(F)c([C@H]8CCC(=O)NC8=O)c(F)c7)CC6)CC5)(C3)C4)cc2cc1NC(=O)c1ccc2cc(C#N)cnn12` [Example 349, (R)-3-cyano-N-(2-(3-(4-(2-(1-(4-(2,6-dioxopiperidin-3-yl)-3,5-difluorophenyl)piperidin-4-yl)ethyl)piperazin-1-yl)bicyclo[1.1.1]pentan-1-yl)-6-(2-hydroxypropan-2-yl)-2H-indazol-5-yl)pyrrolo[1,2-b]pyridazine-7-carboxamide], for which the DC50 is 7.7 nM in assay [1], 3.9 nM in assay [2] (setting [4]) and 2.4 nM in assay [2] (setting [6]). Further, the Dmax in assay [1] was 98%; in assay [2] (setting [3]), 94%; in assay [2] (setting [5]), 97%.
For the compound `N#Cc1cnn2c(C(=O)Nc3cc4cn([C@H]5CC[C@H](N6CCN(C(=O)C7CN(c8cc(F)c([C@H]9CCC(=O)NC9=O)c(F)c8)C7)CC6)CC5)nc4c4c3OCO4)ccc2c1` [Example 355], the results for the DC50 in assay [1] and in assay [2] (setting [6]) were 75 nM and 0.4 nM, respectively. Besides, the Dmax in assay [1] was determined as 73%; in assay [2] (setting [5]), 95%.
For `COc1cc2nn([C@H]3CC[C@H](N4CCN(C(=O)C5CN(c6cc(F)c([C@H]7CCC(=O)NC7=O)c(F)c6)C5)CC4)CC3)cc2cc1C(=O)Nc1cnn2cccnc12` [Example 344, 2-((1r,4r)-4-(4-(1-(4-((R)-2,6-dioxopiperidin-3-yl)-3,5-difluorophenyl)azetidine-3-carbonyl)piperazin-1-yl)cyclohexyl)-6-methoxy-N-(pyrazolo[1,5-a]pyrimidin-3-yl)-2H-indazole-5-carboxamide] the same measures were 2.7 nM, 0.24 nM, 100% and 98%.
For `CC(C)(O)c1cc2nn([C@H]3CC[C@H](N4C[C@@H]5CN(CC6CN(c7cc(F)c(C8CCC(=O)NC8=O)c(F)c7)C6)C[C@H]5C4)CC3)cc2cc1NC(=O)c1ccc2cc(C#N)cnn12` (stereo partly drawn) [Example 359, 3-cyano-N-(2-((1S,4r)-4-((3aS,6aS)-5-((1-(4-((R)-2,6-dioxopiperidin-3-yl)-3,5-difluorophenyl)azetidin-3-yl)methyl)hexahydropyrrolo[3,4-c]pyrrol-2(1H)-yl)cyclohexyl)-6-(2-hydroxypropan-2-yl)-2H-indazol-5-yl)pyrrolo[1,2-b]pyridazine-7-carboxamide] the same measures were 4.2 nM, 2.4 nM, 103% and 97%.
Regarding `CC(C)(O)c1cc2nn([C@H]3CC[C@H](N4CCN(C5CCN(c6ccc(C7CCC(=O)NC7=O)nc6)CC5)CC4)CC3)cc2cc1NC(=O)c1ccc2cc(C#N)cnn12` (some centres unmarked) [Example 254, 3-cyano-N-(2-((1r,4r)-4-(4-(1-(6-(2,6-dioxopiperidin-3-yl)pyridin-3-yl)piperidin-4-yl)piperazin-1-yl)cyclohexyl)-6-(2-hydroxypropan-2-yl)-2H-indazol-5-yl)pyrrolo[1,2-b]pyridazine-7-carboxamide], the DC50 in assay [1] turned out to be 25 nM; in assay [2] (setting [4]), 6.7 nM; in assay [2] (setting [6]) it was 4.4 nM. Also, the Dmax in assay [1] is 98%; in assay [2] (setting [3]), 97%; in assay [2] (setting [5]) it was 96%.
With `COC[C@@H]1CN(C(=O)C2CN(c3cc(F)c([C@H]4CCC(=O)NC4=O)c(F)c3)C2)CCN1[C@H]1CC[C@H](n2cc3cc(NC(=O)c4ccc5cc(C#N)cnn45)c(C(C)(C)O)cc3n2)CC1` [Example 183, 3-cyano-N-(2-((1S,4r)-4-((S)-4-(1-(4-((R)-2,6-dioxopiperidin-3-yl)-3,5-difluorophenyl)azetidine-3-carbonyl)-2-(methoxymethyl)piperazin-1-yl)cyclohexyl)-6-(2-hydroxypropan-2-yl)-2H-indazol-5-yl)pyrrolo[1,2-b]pyridazine-7-carboxamide], the DC50 in assay [1] worked out at 35 nM; in assay [2] (setting [6]), 0.3 nM. The Dmax worked out at 95% in assay [1] and 98% in assay [2] (setting [5]).
For `CC(C)(O)c1cc2nn([C@H]3CC[C@H](N4CCN([C@H]5C[C@@H](c6ccc(N[C@H]7CCC(=O)NC7=O)cc6)C5)CC4)CC3)cc2cc1NC(=O)c1ccc2cc(C#N)cnn12` [Example 273, 3-cyano-N-(2-((1R,4r)-4-(4-((1R,3S)-3-(4-(((S)-2,6-dioxopiperidin-3-yl)amino)phenyl)cyclobutyl)piperazin-1-yl)cyclohexyl)-6-(2-hydroxypropan-2-yl)-2H-indazol-5-yl)pyrrolo[12-b]pyridazine-7-carboxamide] the same measures were 9.3 nM, 5 nM, 98% and 95%.
For `CC(C)(O)c1cc2nn([C@H]3CC[C@H](N4CCN(C[C@@H]5CCN(c6ccc7c(c6)C(=O)N(C6CCC(=O)NC6=O)C7=O)C5)CC4)CC3)cc2cc1NC(=O)c1ccc2cc(C#N)cnn12` (stereo partly drawn) [Example 431, 3-cyano-N-(2-((1S,4r)-4-(4-(((3S)-1-(2-(2,6-dioxopiperidin-3-yl)-1,3-dioxoisoindolin-5-yl)pyrrolidin-3-yl)methyl)piperazin-1-yl)cyclohexyl)-6-(2-hydroxypropan-2-yl)-2H-indazol-5-yl)pyrrolo[1,2-b]pyridazine-7-carboxamide] the same measures were 8.7 nM, 1.6 nM, 95% and 94%.
For `CC(C)(O)c1cc2nn([C@H]3CC[C@H](N4CCN(C5CCN(c6cc(F)c(N7CCC(=O)NC7=O)c(F)c6)CC5)CC4)CC3)cc2cc1NC(=O)c1ccc2cc(C#N)cnn12` [Example 293, 3-cyano-N-(2-((1r,4r)-4-(4-(1-(4-(2,4-dioxotetrahydropyrimidin-1(2H)-yl)-3,5-difluorophenyl)piperidin-4-yl)piperazin-1-yl)cyclohexyl)-6-(2-hydroxypropan-2-yl)-2H-indazol-5-yl)pyrrolo[1,2-b]pyridazine-7-carboxamide] the same measures were 9.4 nM, 9.4 nM, 96% and 96%.
For `COC[C@@H]1CN([C@H]2CC[C@H](n3cc4cc(NC(=O)c5ccc6cc(C#N)cnn56)c(C(C)(C)O)cc4n3)CC2)CCN1C1CCN(c2ccc(C3CCC(=O)NC3=O)nc2C)CC1` (stereo partly drawn) [Example 418, 3-cyano-N-(2-((1S,4r)-4-((3S)-4-(1-(6-(2,6-dioxopiperidin-3-yl)-2-methylpyridin-3-yl)piperidin-4-yl)-3-(methoxymethyl)piperazin-1-yl)cyclohexyl)-6-(2-hydroxypropan-2-yl)-2H-indazol-5-yl)pyrrolo[1,2-b]pyridazine-7-carboxamide], the DC50 in assay [1] was 6.1 nM; in assay [2] (setting [6]), 1.8 nM. Besides, the Dmax was 100% in assay [1] and 94% in assay [2] (setting [5]).
